Test systems include 786-0; EKVX; HCT-15; HOP-62; KM12; MDA-MB-231; NCI-H226; NCI-H23; NCI-H460; NCI/ADR-RES; OVCAR-3; PC-3; SF-268; SK-MEL-2; SK-MEL-5; SN12C; SR; SW-620; U-251; UO-31.
Holding throughout (assay): growth of human tumour cells (NCI), 48 h

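Five concentrations, 48 hours, 96-well plates. At the GI50, growth is halved.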 Active and inactive are the calls of the source. Rule as the data show it: active = GI50 up to about 1.1 µM and inactive = higher.

`CCCC(=O)OC1CC(n2cc(F)c(=O)[nH]c2=O)OC1CO` (stereo not given): the GI50 was 0.342 µM (active) in the test with 786-0; > 10 µM (inactive) in the test with EKVX; greater than 7.64 µM with HCT-15; 0.0583 µM (active) in the test with HOP-62; > 10 µM (inactive) in the test on KM12; > 8.95 µM (inactive) with MDA-MB-231. Further, the GI50 in the test with NCI-H226 is > 10 µM (inactive); with NCI-H23, 0.0682 µM (active); in the test with NCI-H460, 0.0948 µM (active); with NCI/ADR-RES, > 2.55 µM (inactive); in the test with OVCAR-3, 3.69 µM (inactive); with PC-3, 1.48 µM (inactive). Also, the GI50 in the test on SF-268 was 0.0356 µM (active); in the test with SK-MEL-2, > 10 µM (inactive); in the test on SK-MEL-5 it was 0.329 µM (active); in the test with SN12C, 0.317 µM (active); in the test on SR, 0.0493 µM (active); in the test on SW-620 it was > 10 µM (inactive). The GI50 in the test on U-251 is > 5.24 µM (inactive); with UO-31, 0.362 µM (active).
With `Cc1ccc(S(=O)(=O)N2CCNCCN(S(=O)(=O)c3ccc(C)cc3)CCN(S(=O)(=O)c3ccc(C)cc3)CC2)cc1`, the GI50 was > 100 µM (inactive) with 786-0; > 100 µM (inactive) in the test with EKVX; greater than 100 µM in the test on HCT-15; > 100 µM (inactive) with HOP-62; > 100 µM (inactive) in the test with KM12; > 100 µM (inactive) with MDA-MB-231. Besides, the GI50 in the test on NCI-H226, with NCI-H23, in the test on NCI-H460, in the test with NCI/ADR-RES, with OVCAR-3 and in the test on PC-3 was > 100 µM (inactive) throughout. For the same compound, the GI50 with SF-268, with SK-MEL-2, with SK-MEL-5, with SN12C, with SR and in the test with SW-620 was > 100 µM (inactive) each time. Further, the GI50 in the test on U-251 and with UO-31 was > 100 µM (inactive) each time.
Turning to `COc1nc2nccnc2c(=O)n1C`, the GI50 was > 10 µM (inactive) in the test with 786-0; > 10 µM (inactive) with EKVX; greater than 10 µM in the test with HCT-15; > 10 µM (inactive) in the test on HOP-62; > 10 µM (inactive) in the test on KM12; > 10 µM (inactive) in the test with MDA-MB-231. The GI50 in the test with NCI-H226, in the test with NCI-H23, with NCI-H460, in the test on NCI/ADR-RES, in the test with OVCAR-3 and in the test with PC-3 was > 10 µM (inactive) in each case. For the same compound, the GI50 in the test on SF-268, in the test with SK-MEL-2, in the test with SK-MEL-5, in the test on SN12C, in the test with SR and in the test with SW-620 was > 10 µM (inactive) throughout. Further, the GI50 in the test with U-251 and with UO-31 was > 10 µM (inactive) throughout.
Take `CCN1C=C/C(=C\C=C\c2cc[n+](CC)c3ccccc23)c2ccccc21`: the GI50 in the test on 786-0 was 4.9 µM (inactive); with EKVX, 18.9 µM (inactive); with HCT-15, 16.4 µM; with HOP-62 it was 3.24 µM (inactive); in the test with KM12 it was 3.42 µM (inactive); in the test on MDA-MB-231 it was 3.31 µM (inactive). The GI50 with NCI-H226 was 3.36 µM (inactive); with NCI-H23, 2.87 µM (inactive); in the test on NCI-H460 it was 3.4 µM (inactive); with NCI/ADR-RES, 64.4 µM (inactive); in the test on OVCAR-3, 2.49 µM (inactive); in the test with PC-3, 4.49 µM (inactive). Also, the GI50 with SF-268 was 4.99 µM (inactive); with SK-MEL-2, 7.62 µM (inactive); in the test on SK-MEL-5 it was 8.99 µM (inactive); in the test with SN12C it was 3.63 µM (inactive); in the test on SR it was 3.33 µM (inactive); in the test with SW-620 it was 4.62 µM (inactive). Moreover, the figures for the GI50 with U-251 and in the test with UO-31 were 3.8 µM (inactive) and 15.2 µM (inactive), respectively.

The values above are taken from ChEMBL document CHEMBL1201862, “PubChem BioAssay data set” (2004).
